Test results: patent US12622899B2 (PureTech LYT 100, Inc., priority 2018, dated 2026)

Experiments:
[1] = tested on: patients with COVID-19 respiratory disease; test: Phase 2 trial of LYT-100 in post-acute COVID-19 respiratory disease: tolerability; type: in vivo, human; settings: COVID-19 study
Experimental: An initial dosage of 500 mg BID was given the first 3 days of dosing, followed by 750 mg BID thereafter.

clinical = settings: both sexes, human, in vivo, 550 mg
Experimental: Over-encapsulation was utilized to maintain study blind. […] Approximately 50 older healthy female and male adult subjects (1:1 ratio) were randomized into 1 of 2 cohorts:Cohort 1 or Cohort 2, N=˜25 subjects per cohort.
There was a single AM fasting dose on Day 4 for both drugs. There was a 6-day wash-out period between drug cross-over.
Subjects were discharged on Day 4 following successful completion of all assessments and at the Investigator's discretion.
Subjects were then administered a single dose of their randomized treatment on the morning of Day 14 following an overnight fast of at least 8 hours. Subjects were discharged on Day 14 following successful completion of all assessments and at the Investigator's discretion.
An evening snack was served ≥3 hours following evening study medication administration. On Day 4 (Treatment Period 1) and Day 14 (Treatment Period 2), subjects were administered their assigned study drug once in the morning following an overnight fast of at least 8 hours (with approximately 240 mL of non-carbonated water). No additional fluids were allowed during the 1 hour pre- and post-dose.
Blood samples for PK were collected for Cohorts 1 and 2 at specified times during both periods, as follows: • Days 1 & 11:0 (pre-morning dose) • Days 2 & 12: no sampling. • Days 3 & 13:0 (pre-morning dose), and 1, 2, 3, 4, 6 (pre-mid-day dose), 7, 8, 9, 10, 12 (pre-evening dose), 13, 14, 15, 16, and 17 hours post-morning dose • Days 4 & 14:0 (pre-morning dose), and 1, 2, 3, 4, 6 (post-dose),

CYP2C19 = biological target: T1, CYP2C19 (Homo sapiens, UniProt P33261); test: In vitro stability with recombinant human CYP2C19; type: in vitro ADME; settings: recombinant human isozyme; read-out: t1/2 following incubation with CYP2C19 (converted)
T1 construct: host or cells: heterologous cell systems (not specified)
Experimental: (§1) The half-life (t½) of each test article was determined.

CYP1A2 = biological target: T2, CYP1A2 (Homo sapiens, UniProt P05177); test: In vitro stability with recombinant human CYP1A2; type: in vitro ADME; settings: recombinant human isozyme; read-out: t1/2 following incubation with CYP1A2 (converted)
T2 construct: host or cells: heterologous cell systems (not specified)
T2 sequence (P05177 1-516): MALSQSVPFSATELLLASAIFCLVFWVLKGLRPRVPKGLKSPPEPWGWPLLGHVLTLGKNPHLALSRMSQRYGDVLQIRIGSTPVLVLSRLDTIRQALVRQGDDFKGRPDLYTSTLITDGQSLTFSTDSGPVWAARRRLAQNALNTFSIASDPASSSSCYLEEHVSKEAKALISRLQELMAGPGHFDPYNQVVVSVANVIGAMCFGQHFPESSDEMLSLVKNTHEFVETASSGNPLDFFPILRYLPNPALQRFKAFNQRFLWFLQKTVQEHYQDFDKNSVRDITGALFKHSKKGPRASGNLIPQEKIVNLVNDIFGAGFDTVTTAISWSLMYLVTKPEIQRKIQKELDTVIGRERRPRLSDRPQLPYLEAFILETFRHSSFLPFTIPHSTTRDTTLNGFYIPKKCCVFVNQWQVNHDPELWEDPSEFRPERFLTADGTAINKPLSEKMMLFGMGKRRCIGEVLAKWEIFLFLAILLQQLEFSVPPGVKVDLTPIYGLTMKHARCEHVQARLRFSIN
Experimental: as §1

[2] = LYT-100 500 mg BID 3 days then 750 mg BID

T1 sequence (P33261 whole entry): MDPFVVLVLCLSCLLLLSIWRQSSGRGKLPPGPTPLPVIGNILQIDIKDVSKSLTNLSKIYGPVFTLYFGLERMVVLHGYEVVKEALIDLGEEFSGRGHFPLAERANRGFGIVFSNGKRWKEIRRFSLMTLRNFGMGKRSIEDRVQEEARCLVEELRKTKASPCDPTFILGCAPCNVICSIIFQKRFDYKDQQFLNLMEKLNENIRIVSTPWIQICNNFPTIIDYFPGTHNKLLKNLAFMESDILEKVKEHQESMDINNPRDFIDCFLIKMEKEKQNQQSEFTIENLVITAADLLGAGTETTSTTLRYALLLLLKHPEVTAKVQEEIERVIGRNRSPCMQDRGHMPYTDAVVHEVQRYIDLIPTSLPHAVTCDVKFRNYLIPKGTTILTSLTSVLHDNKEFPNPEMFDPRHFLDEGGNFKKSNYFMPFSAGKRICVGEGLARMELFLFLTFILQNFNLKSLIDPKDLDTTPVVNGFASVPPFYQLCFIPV

[2H]C([2H])([2H])c1ccc(=O)n(-c2ccccc2)c1 [LYT-100, 5-(methyl-d3)-1-phenylpyridin-2-(1H)-one]
drug-related serious adverse events or deaths [1]: no drug-related serious adverse events (SAEs) or deaths | discontinuation rate due to AEs at least possibly related [1, 2]: 8.6% | dizziness, AE at least possibly related, incidence [1, 2]: 3.3% | fatigue, AE at least possibly related, incidence [1, 2]: 2.2% | headache, AE at least possibly related, incidence [1, 2]: 4.3% | nausea, AE at least possibly related, incidence [1, 2]: 8.7% | rash, AE at least possibly related, incidence [1, 2]: 3.3% | Dyspepsia, treatment emergent AE, events ([1]; LYT-100 750 mg BID): 6 Events | Dyspepsia, treatment emergent AE, subjects ([1]; LYT-100 750 mg BID): 6 (6.5) N (%) | Headache, treatment emergent AE, events ([1]; LYT-100 750 mg BID): 5 Events | Headache, treatment emergent AE, subjects ([1]; LYT-100 750 mg BID): 5 (5.4) N (%) | Increase in Fibrin D Dimer, treatment emergent AE, events ([1]; LYT-100 750 mg BID): 6 Events | Increase in Fibrin D Dimer, treatment emergent AE, subjects ([1]; LYT-100 750 mg BID): 5 (5.4) N (%) | Nasopharyngitis, treatment emergent AE, events ([1]; LYT-100 750 mg BID): 7 Events | Nasopharyngitis, treatment emergent AE, subjects ([1]; LYT-100 750 mg BID): 6 (6.5) N (%) | Nausea, treatment emergent AE, events ([1]; LYT-100 750 mg BID): 10 Events | Nausea, treatment emergent AE, subjects ([1]; LYT-100 750 mg BID): 8 (8.7) N (%) | Upper abdominal pain, treatment emergent AE, events ([1]; LYT-100 750 mg BID): 6 Events | Upper abdominal pain, treatment emergent AE, subjects ([1]; LYT-100 750 mg BID): 5 (5.4) N (%) | AUC(0-t) (clinical; AUC0-24, parent): 34100 ng·h/mL | Cmax (clinical; Cmax, parent): 9170 ng/mL | half-life (CYP2C19): 3.67 h | half-life (CYP1A2): 9.08 h
